Laboratory results published in US9040637B2, “Manganese comprising nanostructures” (SPAGO IMAGING AB, priority 2011, dated 2015).

Tests used:
Format in all cases: physicochemical
[1] = Relaxivity (r1, r2) measurement at 1.91 T (81.33 MHz); conditions: in H2O @ 25 C.
Description: Furthermore, the effect of a compound on the T1 is given as the relaxivity so a high relaxivity gives a stronger signal enhancement. The relaxivity (r) is frequency dependent in a structure dependent way which complicates the comparison of data from the literature from different sources. The clinical MRI scanners usually have a magnetic field of 1.5 or 3 Tesla so we have measured our relaxivities at 1.91 T, corresponding to a proton resonance frequency of 81.3 MHz, as a reasonable compromise. Measurements may also be done at other frequencies, such as 60 MHz. The relaxivity for the commercially available gadolinium based contrast agents are close to 4/mMGd/s at the clinically relevant fields.

[2] = Complexometric stability test (equimolar EDTA) evaluated by relaxometry; conditions: 1 mM Mn standard + equimolar EDTA, pH 7±0.5, 60 MHz, 37° C.
Description: Measure the longitudinal relaxivity of a nanostructure solution (r1(ns)) having a concentration of 1 mM Mn. Prepare another nanostructure solution containing 1 mM Mn and add an equivalent molar amount of EDTA. The pH of this solution must be adjusted to pH 7±0.5, if necessary. Measure the longitudinal relaxivity of this nanostructure solution with added EDTA (r1(ns+EDTA)). As a reference material, 1 mM solution using a Manganese Standard for AAS (Fluka 77036) is prepared, added an equimolar amount of EDTA, and pH adjusted to pH 7±0.5. The longitudinal relaxivity is measured (r1(Mn+EDTA)) and resulted to a value of 1.6 mM^−1s^−1. To calculate the % Mn-released from the nanostructure after addition of equivalent EDTA:
[formula] Note: Relaxation (T1, in seconds) is measured using the Minispec mq60 NMR analyzer (60 MHz) at 37° C. and relaxivity r1 is calculated using:
[formula] where T1 H2O=[…]; c1=1 mM.

[3] = Hydrodynamic diameter by dynamic light scattering (DLS), volume average; conditions: aqueous solution
Description: The term “DLS” as used herein is an acronym for dynamic light scattering, a particle sizing method, and may also be referred to as Photon Correlation Spectroscopy or Quasi-Elastic Light Scattering. The DLS sizes given as stated in the text and in the claims, if nothing else is specified, refers to the position of the maximum of the volume average peak for a sample measured at 25° C. in neutral aqueous solution with an ionic strength corresponding to 150 mM NaCl.
The hydrodynamic diameter referred to, is the diameter of the equivalent hard sphere as calculated from the diffusion coefficient, according to the Stokes-Einstein equation. The diffusion coefficient is in turn calculated from the time dependent light scattering data obtained by the Dynamic Light Scattering (DLS) technique. As a comparison, bovine serum albumin is measured to have a hydrodynamic diameter of 6.5 nm by DLS in aqueous solution, very much in agreement with the crystal structure. Depending on whether the number average, volume average, or scattered intensity average is used, the values may be somewhat different. […] The average diameters referred to in this text refers to volume averages.

With `[Cl][Mn][Cl]` [MnCl2] the r1 [1] was 5.8.

In the case of Mn+EDTA, the “longitudinal relaxivity r1(Mn+EDTA)” value [2] is reported as 1.6 mM⁻¹ s⁻¹.

For “bovine serum albumin: size comparison for DLS”, the “hydrodynamic diameter by DLS” value [3] was 6.5 nm.
